Patent US5763483A, “Carbocyclic compounds” (priority 1996, dated 1998)

These compounds were tested against neuraminidase (assay: Enzyme Inhibition (in vitro neuraminidase screen)).
Format: biochemical
Source text: Compositions of the invention are screened for inhibitory activity against neuraminidase by any of the conventional techniques for evaluating enzyme activity. Within the context of the invention, typically compositions are first screened for inhibition of neuraminidase in vitro and compositions showing inhibitory activity are then screened for activity in vivo. Compositions having in vitro Ki (inhibitory constants) of less then about 5×10^-6 M, typically less than about 1×10^-7 M and preferably less than about 5×10^-8 M are preferred for in vivo use.
Useful in vitro screens have been described in detail and will not be elaborated here. However, Itzstein, M. von et al.; "Nature", 363(6428):418-423 (1993), in particular page 420, column 2, full paragraph 3, to page 421, column 2, first partial paragraph, describes a suitable in vitro assay of Potier, M.; et al.; "Analyt. Biochem.", 94:287-296 (1979), as modified by Chong, A. K. J.; et al.; "Biochem. Biophys. Acta", 1077:65-71 (1991); and Colman, P. M.; et al.; International Publication No. WO 92/06691 (Int. App. No. PCT/AU90/00501, publication date Apr. 30, 1992) page 34, line 13, to page 35, line 16, describes another useful in vitro screen.
Enzyme Inhibition: Using the methods of screening in vitro activity described above, the following activities were observed (+10-100 μm, ++1-10 μm, +++<1.0 μm): […]

| Structure (SMILES) | IC50 [µM] |
| --- | --- |
| CC(=O)N[C@@H]1[C@@H](N)CC(C(=O)O)=C[C@H]1OCC(O)CO (stereo partly drawn) [Compound 8] | 1 to 10 |
| CC(=O)N[C@H]1[C@H](O)C=C(C(=O)O)C[C@@H]1NC(=N)N [Compound 94] | < 1 |
| COCO[C@@H]1C=C(C(=O)O)C[C@H](N)[C@H]1NC(C)=O [Compound 114] | 1 to 10 |
